Conditions: Crystal; for vapor or sublimation pressure: Calculated from knudsen effusion weight loss; for Normal melting temperature: visual observation

Brc1c2ccccc2cc2ccccc12 [9-bromoanthracene]
Conditions	Normal melting temperature [°C]	vapor or sublimation pressure [kPa]
–	101.00	–
314.8 K	–	5.1e-06
319.8 K	–	1.06e-05
324.8 K	–	1.71e-05
329.8 K	–	3.26e-05
334.9 K	–	5.32e-05
339.9 K	–	9.3e-05
345 K	–	0.000158
350 K	–	0.000261
355 K	–	0.000418

Brc1ccc2cc3ccccc3cc2c1 [anthracene, 2-bromo-]
Conditions	Normal melting temperature [°C]	vapor or sublimation pressure [kPa]
–	220.70	–
334.8 K	–	5.41e-06
339.8 K	–	9.21e-06
344.9 K	–	1.56e-05
350 K	–	2.61e-05
355 K	–	4.15e-05
360.1 K	–	7.18e-05
365.2 K	–	0.000114
370.4 K	–	0.000184
375.3 K	–	0.000287
380.4 K	–	0.000437
385.4 K	–	0.000652
390.4 K	–	0.000887

c1ccc2cc3ccccc3cc2c1 [anthracene]
Conditions	Normal melting temperature [°C]	vapor or sublimation pressure [kPa]
–	216.90	–
322.9 K	–	1.82e-05
328 K	–	2.97e-05
333 K	–	5.58e-05
338.1 K	–	8.91e-05
343.1 K	–	0.000146
348.2 K	–	0.000233

Reference: the NIST ThermoML archive (doi:10.1016/j.fluid.2012.12.036)
